# Laboratory results as given in patent US12492185B2, “Benzimidazole derivatives and their uses” (Teijin Pharma Limited, priority 2019, dated 2025).
# Biological target: T1, human TRPC6 (Homo sapiens, UniProt Q9Y210)
# T1 construct: expressed in transfected cells
# T1 sequence (Q9Y210 1-931): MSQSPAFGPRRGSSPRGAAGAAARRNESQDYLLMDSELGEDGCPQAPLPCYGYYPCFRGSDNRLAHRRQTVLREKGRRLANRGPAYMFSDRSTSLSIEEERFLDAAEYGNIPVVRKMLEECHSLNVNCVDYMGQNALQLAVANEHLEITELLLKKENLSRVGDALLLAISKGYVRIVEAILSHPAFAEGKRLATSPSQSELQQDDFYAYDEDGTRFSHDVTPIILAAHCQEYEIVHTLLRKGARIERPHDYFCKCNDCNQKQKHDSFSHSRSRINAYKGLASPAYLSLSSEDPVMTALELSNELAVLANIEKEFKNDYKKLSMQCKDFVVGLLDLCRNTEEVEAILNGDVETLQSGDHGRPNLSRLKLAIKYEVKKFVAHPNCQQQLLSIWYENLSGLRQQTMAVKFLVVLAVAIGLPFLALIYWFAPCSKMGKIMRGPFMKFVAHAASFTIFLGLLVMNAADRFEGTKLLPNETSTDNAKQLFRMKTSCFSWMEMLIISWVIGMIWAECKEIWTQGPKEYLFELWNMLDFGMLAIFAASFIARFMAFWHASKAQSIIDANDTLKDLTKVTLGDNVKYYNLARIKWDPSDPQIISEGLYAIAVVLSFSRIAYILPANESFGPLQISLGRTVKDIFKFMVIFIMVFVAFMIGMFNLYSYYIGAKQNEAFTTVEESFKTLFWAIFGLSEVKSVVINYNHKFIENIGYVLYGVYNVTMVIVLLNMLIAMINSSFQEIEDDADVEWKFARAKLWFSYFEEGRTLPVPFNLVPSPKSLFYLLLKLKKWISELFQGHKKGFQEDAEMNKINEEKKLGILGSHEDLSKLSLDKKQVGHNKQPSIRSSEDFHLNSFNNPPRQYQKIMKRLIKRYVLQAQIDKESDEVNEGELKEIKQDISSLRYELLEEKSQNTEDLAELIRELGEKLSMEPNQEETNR
# Test: TRPC6 Calcium Flux Assay
# Format: cell-based
# Settings: inhibition of OAG-triggered calcium influx in HEK293 cells stably transfected with human TRPC6; FLIPR; 25 min compound preincubation; 50 uM OAG; read-out: hTRPC6 Potency
# Method: Potency of TRPC6 (Transient receptor potential channel family C6) inhibitors were measured by their inhibition of Calcium influx trigged by OAG (1-Oleoyl-2-acetyl-sn-glycerol, Millipore Sigma, O6754) stimulation on HEK293 cells stably transfected with human TRPC6 using a FLIPR tetra system (BD PBX Calcium Assay Kit; BD Biosciences, San Jose Calif.). Cells were grown in a humidified environment at 37° C. under 5% CO2 using the growth medium with the following selective reagents (Dulbecco's Modified Eagle's Medium (DMEM) high glucose, 10% Fetal Bovine Serum, 1×PSGlu (penicillin-streptomycin glutamine), 1×NEAA (Non-essential amino acid), 1×Na Pyruvate and 200 ug/ml Hygromycin). For general passage, cells were grown to 70-90% confluency; the media was removed, and the cells were gently washed 2 times with calcium and magnesium free PBS (phosphate-buffered saline). Trypsin (3 mL) was applied for 5 minutes at 37° C. The cells were dislodged by rapping flask against base of a hand and 7 mL of growth medium was added to deactivate trypsin and re-suspend cells. The usual splitting schedule was 1:5 every 2-3 days.
# Cells were plated the day before the assay, plating cell density is 1.0-1.5×10^4/25 μl/well in poly-D-lysine (PDL) coated 384-well plates using either multichannel pipettes or multidrop. These cells were first incubated with fluorescence dye at room temperature for 90-120 minutes after they were grown on PDL-coated 384-well black plates overnight (Dye loading buffer 10 ml example: 9 mL assay buffer, 1 mL, 10×PBX signal enhancer, 10 μL Calcium indicator). The cells were incubated with a dose of compounds for 25 minutes before being stimulated with TRPC6 agonist OAG. The OAG solution was prepared by adding OAG into assay buffer (Ca ringer solution base: 10 mM HEPES (4-(2-hydroxyethyl)-1-piperazine-ethanesulfonic acid), 4 mM MgCl2, 120 mM NaCl, 5 mM KCl, pH=7.2 @25° C.)+0.1% BSA+2 mM CaCl2) to the concentration of 0.2 mM/2% DMSO, which achieves a final on cell concentration of 50 uM/0.5% DMSO. 12.5 uL OAG mixture was added and the activation of the TRPC6 channel was measured by the change of intracellular Calcium levels on FLIPR terra system.
# Data was acquired by measuring the fluorescent peak signal subtracted from the background during the 180 second imaging frame. Each data point is further normalized to 100% of OAG triggered signal vs. buffer. Table 3 provides the IC50 for each compound, which data is obtained by plotting peak signal over the compound dose.
row,IC50 [nM],Structure (SMILES)
1,1.3,"N#Cc1ccc2nc(N3CCC(F)(F)[C@H](N)C3)n(Cc3ccc(Cl)cn3)c2c1 (single isomer, unassigned) [Example 13]"
2,0.1,"Cc1ccc(Cn2c(N3CC[C@@H](F)[C@H](N)C3)nc3cc(F)c(F)cc32)nc1 [Example 8, (3R,4R)-1-(5,6-difluoro-1-((5-methyl-2-pyridinyl)methyl)-1H-benzimidazol-2-yl)-4-fluoro-3-piperidinamine]"
3,1.2,"COc1cnc(Cn2c(N3CC[C@@H](F)[C@H](N)C3)nc3cc(F)c(F)cc32)nc1 [Example 19, (3R,4R)-1-(5,6-difluoro-1-((5-methoxy-2-pyrimidinyl)methyl)-1H-benzimidazol-2-yl)-4-fluoro-3-piperidinamine]"
4,0.4,"COc1cc(F)c2nc(N3CC[C@@H](F)[C@H](N)C3)n(Cc3ncc(Cl)cn3)c2c1 (single isomer, unassigned) [Example 21]"
5,1,"N[C@@H]1CN(c2nc3ccc(F)cc3n2Cc2ccc(Cl)cn2)CC[C@H]1F (single isomer, unassigned) [Example 12, (3R.4R)-1-(1-((5-chloro-2-pyridinyl)methyl)-6-fluoro-1H-benzimidazol-2-yl)-4-fluoro-3-piperidinamine]"
6,1.2,"N[C@@H]1CN(c2nc3cc(F)c(F)cc3n2Cc2ncc(Cl)cn2)CC[C@H]1F [Example 18, (3R,4R)-1-(1-((5-chloro-2-pyrimidinyl)methyl)-5,6-difluoro-1H-benzimidazol-2-yl)-4-fluoro-3-piperidinamine]"
7,1,"N#Cc1cc(F)cc2c1nc(N1CC[C@@H](F)[C@H](N)C1)n2Cc1ccc(F)cn1 (single isomer, unassigned) [Example 15]"
8,2.2,"N[C@@H]1CN(c2nc3cc(F)cc(F)c3n2Cc2ccc(F)cn2)CCC1(F)F (single isomer, unassigned) [Example 2]"
9,0.7,"N[C@@H]1CN(c2nc3cc(F)ccc3n2Cc2ccc(F)cn2)CC[C@H]1F (single isomer, unassigned) [Example 1]"
10,22.9,"N[C@@H]1CN(c2nc3ccc(F)cc3n2Cc2ccc(F)cn2)CCC1(F)F (single isomer, unassigned) [Example 7]"
11,1.8,"N#Cc1cccc(Cn2c(N3CC[C@@H](F)[C@H](N)C3)nc3cc(F)c(F)cc32)n1 [Example 20, 6-((2-((3R,4R)-3-amino-4-fluoro-1-piperidinyl)-5,6-difluoro-1H-benzimidazol-1-yl)methyl)-2-pyridinecarbonitrile]"
12,1,"N[C@@H]1CN(c2nc3ccc(F)cc3n2Cc2ncc(Cl)cn2)CCC1(F)F (single isomer, unassigned) [Example 6]"
13,0.4,"N[C@@H]1CN(c2nc3cc(F)ccc3n2Cc2ncc(F)cn2)CC[C@H]1F (single isomer, unassigned) [Example 11]"
14,0.5,"COc1cnc(Cn2c(N3CC[C@@H](F)[C@H](N)C3)nc3c(F)cc(F)cc32)nc1 (single isomer, unassigned) [Example 9]"
15,0.6,"N[C@@H]1CN(c2nc3cc(F)c(F)cc3n2Cc2ccc(Cl)cn2)CCC1(F)F [Example 16, (3R)-1-(1-((5-chloro-2-pyridinyl)methyl)-5,6-difluoro-1H-benzimidazol-2-yl)-4,4-difluoro-3-piperidinamine]"
16,0.3,"N[C@@H]1CN(c2nc3cc(F)ccc3n2Cc2ccc(Cl)cn2)CCC1(F)F (single isomer, unassigned) [Example 5]"
17,0.6,"N[C@@H]1CN(c2nc3cc(F)c(F)cc3n2Cc2ncc(Cl)cn2)CCC1(F)F [Example 17, (3R)-1-(1-((5-chloro-2-pyrimidinyl)methyl)-5,6-difluoro-1H-benzimidazol-2-yl)-4,4-difluoro-3-piperidinamine]"
18,2.5,"N[C@@H]1CN(c2nc3ccc(F)cc3n2Cc2ccc(Cl)cn2)CCC1(F)F (single isomer, unassigned) [Example 10]"
19,0.4,"N[C@@H]1CN(c2nc3ccc(F)cc3n2Cc2ccc(F)cn2)CC[C@H]1F (single isomer, unassigned) [Example 4]"
20,0.2,"N[C@@H]1CN(c2nc3ccc(F)cc3n2Cc2ncc(F)cn2)CC[C@H]1F (single isomer, unassigned) [Example 3]"
21,1.2,"N[C@@H]1CN(c2nc3c(F)cc(F)cc3n2Cc2ncc(Cl)cn2)CCC1(F)F (single isomer, unassigned) [Example 14]"
